Where two headings read alike, the source gives them in different places.
Assays:
MEK1 = molecular target: T1, MEK1 (Homo sapiens, UniProt Q02750); test: MEK1-inhibiting activity, fluorescent polarization method (CRAF/MEK1/ERK2 cascade, IMAP); format: biochemical
T1 construct: purchased Thermo Fisher Scientific Inc. (MEK1, CRAF); Carna Biosciences, Inc. (ERK2)
Procedure: The MEK1-inhibiting activity of the compounds listed in Table 3 below were evaluated by the fluorescent polarization method as described below.

NCI-H2122 = test: Cell proliferation-inhibiting activity (ATP in viable cells, CellTiter-Glo), NCI-H2122; format: cell-based, human; conditions: read-out: NCI-H2122 IC50
[1] = Human liver microsome stability; format: in vitro ADME; conditions: human liver microsomes, pH 7.4
A549 = test: Cell proliferation-inhibiting activity (ATP in viable cells, CellTiter-Glo), A549; format: cell-based, human; conditions: read-out: A549 IC50
BRAF = molecular target: T2, BRAF (Homo sapiens, UniProt P15056); test: BRAF-inhibiting activity, time-resolved fluorescence-fluorescence resonance energy transfer assay; format: biochemical
T2 construct: purchased Eurofins Genomics KK; (BRAF); Thermo Fisher Scientific Inc. (MEK1)
Procedure: The BRAF-inhibiting activity of the compounds listed in Table 3 below was evaluated by the time-resolved fluorescence-fluorescence resonance energy transfer assay as described below.

[2] = NCI-H2122, 96 h, human lung cancer cells, 4 days
[3] = A549, 96 h, human lung cancer cells, 4 days
[4] = human lung cancer cells, 4 days

T2 sequence (P15056 417-766 limits assumed): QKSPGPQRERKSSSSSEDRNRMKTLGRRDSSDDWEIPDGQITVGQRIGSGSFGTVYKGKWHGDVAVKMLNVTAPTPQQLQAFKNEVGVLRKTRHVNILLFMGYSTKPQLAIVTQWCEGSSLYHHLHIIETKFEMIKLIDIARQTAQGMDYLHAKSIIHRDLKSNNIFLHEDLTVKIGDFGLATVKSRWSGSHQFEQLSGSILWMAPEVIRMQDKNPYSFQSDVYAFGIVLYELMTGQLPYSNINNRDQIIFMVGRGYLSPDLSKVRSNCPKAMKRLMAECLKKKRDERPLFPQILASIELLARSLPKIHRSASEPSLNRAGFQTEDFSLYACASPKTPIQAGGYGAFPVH
T1 sequence (Q02750 whole entry): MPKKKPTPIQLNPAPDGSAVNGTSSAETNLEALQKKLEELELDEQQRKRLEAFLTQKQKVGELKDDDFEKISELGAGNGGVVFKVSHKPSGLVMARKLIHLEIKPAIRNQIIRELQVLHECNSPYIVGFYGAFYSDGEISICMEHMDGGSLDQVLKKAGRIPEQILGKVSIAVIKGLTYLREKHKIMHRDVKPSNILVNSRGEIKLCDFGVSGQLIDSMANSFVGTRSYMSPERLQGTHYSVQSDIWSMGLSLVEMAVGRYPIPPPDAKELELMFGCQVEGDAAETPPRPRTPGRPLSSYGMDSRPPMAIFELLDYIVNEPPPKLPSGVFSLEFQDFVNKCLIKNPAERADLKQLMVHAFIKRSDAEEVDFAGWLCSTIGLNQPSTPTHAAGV

Compound | IC50 (MEK1) [nM] | IC50 (NCI-H2122; [2]) [nM] | microsomal CLint at 0.99 µM [1] [µL/min/mg] | IC50 (A549; [3]) [nM] | IC50 (BRAF; Table 3; read-out: BRAF IC50) [nM] | IC50 (MEK1; Table 3, read-out: MEK1 IC50) [nM] | IC50 (BRAF; read-out: BRAF IC50; Table 3) [nM] | IC50 (NCI-H2122; [4]) [nM] | IC50 (A549; [4]) [nM] | IC50 (NCI-H2122; Homo sapiens, NCI-H2122, 96 h) [nM] | IC50 (A549; Homo sapiens, A549, 96 h) [nM]
CC(O)CNS(=O)(=O)Nc1nccc(Cc2cc(C(N)=O)c(Nc3ccc(I)cc3F)c(F)c2F)c1F (racemic) [Compound A-17, (+/-)-3,4-difluoro-5-[[3-fluoro-2-(2-hydroxypropylsulfamoylamino)pyridin-4-yl]methyl]-2-(2-fluoro-4-iodoanilino)benzamide] | 6 | 15 | 6 | 53 | 4 | – | – | – | – | – | –
CNS(=O)(=O)Nc1nccc(Cc2cc(C(=O)NOC(C)C)c(Nc3ccc(I)cc3F)c(F)c2F)c1F [Compound A-10, 3,4-Difluoro-2-(2-fluoro-4-iodoanilino)-5-[[3-fluoro-2-(methylsulfamoylamino)pyridin-4-yl]methyl]-N-propan-2-yloxybenzamide] | – | 0.2 | 89 | 0.1 | – | 5 | 7 | – | – | – | –
COCCNS(=O)(=O)Nc1nccc(Cc2cc(C(=O)NOC(C)C)c(Nc3ccc(I)cc3F)c(F)c2F)c1F [Compound A-11, 3,4-Difluoro-2-(2-fluoro-4-iodoanilino)-5-[[3-fluoro-2-(2-methoxyethylsulfamoylamino)pyridin-4-yl]methyl]-N-propan-2-yloxybenzamide] | – | 1 | 128 | 1 | – | 7 | 9 | – | – | – | –
COCC1(NS(=O)(=O)Nc2nccc(Cc3cc(C(N)=O)c(Nc4ccc(I)cc4F)c(F)c3F)c2F)CC1 [Compound A-16] | – | – | – | – | 3 | 8 | – | 3 | 14 | – | –
C=Cc1ccc(Nc2c(C(N)=O)cc(Cc3ccnc(NS(=O)(=O)NC)c3F)c(F)c2F)c(F)c1 [Compound A-19, 2-(4-Ethenyl-2-fluoroanilino)-3,4-difluoro-5-[[3-fluoro-2-(methylsulfamoylamino)pyridin-4-yl]methyl]benzamide] | – | – | 35 | – | 3 | 30 | – | – | – | 5 | 6
C#Cc1ccc(Nc2c(C(N)=O)cc(Cc3ccnc(NS(=O)(=O)NCCC)c3F)c(F)c2F)c(F)c1 [Compound A-20, 2-(4-ethynyl-2-fluoroanilino)-3,4-difluoro-5-[[3-fluoro-2-(propylsulfamoylamino)pyridin-4-yl]methyl]benzamide] | – | – | 14 | – | 2 | 23 | – | – | – | 6 | 7
NC(=O)c1cc(Cc2ccnc(NS(=O)(=O)NCC3COC3)c2F)c(F)c(F)c1Nc1ccc(I)cc1F [Compound A-21, 3,4-difluoro-2-(2-fluoro-4-iodoanilino)-5-[[3-fluoro-2-(oxetan-3-ylmethylsulfamoylamino)pyridin-4-yl]methyl]benzamide] | – | 14 | 4 | 31 | – | 5 | 4 | – | – | – | –
NC(=O)c1cc(Cc2ccnc(NS(=O)(=O)NC3C4COCC43)c2F)c(F)c(F)c1Nc1ccc(I)cc1F (stereo not shown) [Compound A-22, 3,4-Difluoro-2-(2-fluoro-4-iodoanilino)-5-[[3-fluoro-2-(3-oxabicyclo[3. 1.0]hexan-6-ylsulfamoylamino)pyridin-4-yl]methyl]benzamide] | – | – | – | – | 2 | 6 | – | 10 | 31 | – | –
CC1(NS(=O)(=O)Nc2nccc(Cc3cc(C(N)=O)c(Nc4ccc(I)cc4F)c(F)c3F)c2F)CC1 [Compound A-23, 3,4-Difluoro-2-(2-fluoro-4-iodoanilino)-5-[[3-fluoro-2-[(1-methylcyclopropyl)sulfamoylamino]pyridin-4-yl]methyl]benzamide] | – | 1 | < 1 | 5 | – | 35 | 5 | – | – | – | –
C#Cc1ccc(Nc2c(C(N)=O)cc(Cc3ccnc(NS(=O)(=O)NC)c3F)c(F)c2F)c(F)c1 [Compound A-26, 2-(4-Ethynyl-2-fluoroanilino)-3,4-difluoro-5-[[3-fluoro-2-(methylsulfamoylamino)pyridin-4-yl]methyl]benzamide] | – | – | 13 | – | 9 | 5 | – | – | – | 2 | 7
CNS(=O)(=O)Nc1nccc(Cc2cc(C(N)=O)c(Nc3ccc(Br)cc3F)c(F)c2F)c1F [Compound A-27, 2-(4-bromo-2-fluoroanilino)-3,4-difluoro-5-[[3-fluoro-2-(methylsulfamoylamino)pyridin-4-yl]methyl]benzamide] | – | 10 | 4 | 24 | – | 32 | 7 | – | – | – | –
NC(=O)c1cc(Cc2ccnc(NS(=O)(=O)NC34CC(C3)C4)c2F)c(F)c(F)c1Nc1ccc(I)cc1F [Compound A-28, 5-[[2-(1-Bicyclo[1.1.1]pentanylsulfamoylamino)-3-fluoropyridin-4-yl]methyl]-3,4-difluoro-2-(2-fluoro-4-iodoanilino)benzamide] | – | 2 | 11 | 5 | – | 13 | 9 | – | – | – | –
NC(=O)c1cc(Cc2ccnc(NS(=O)(=O)NC3CCOCC3)c2F)c(F)c(F)c1Nc1ccc(I)cc1F [Compound A-29] | – | 6 | 18 | 28 | 11 | 14 | – | – | – | – | –
NC(=O)c1cc(Cc2ccnc(NS(=O)(=O)NC3CCC3)c2F)c(F)c(F)c1Nc1ccc(I)cc1F [Compound A-32, 5-[[2-(Cyclobutylsulfamoylamino)-3-fluoropyridin-4-yl]methyl]-3,4-dif luoro-2-(2-fluoro-4-iodoanilino)benzamide] | – | 5 | 19 | 7 | – | 25 | 6 | – | – | – | –
CCS(=O)(=O)Nc1nccc(Cc2cc(C(N)=O)c(Nc3ccc(I)cc3F)c(F)c2F)c1F [Compound A-38, 5-[[2-(Ethylsulfonylamino)-3-fluoropyridin-4-yl]methyl]-3,4-difluoro-2-(2-fluoro-4-iodoanilino)benzamide] | – | 15 | 17 | 66 | – | 16 | 3 | – | – | – | –
CCCNS(=O)(=O)Nc1nccc(Cc2cc(C(=O)NOCCO)c(Nc3ccc(I)cc3F)c(F)c2F)c1F [Compound A-45, 3,4-Difluoro-2-(2-fluoro-4-iodoanilino)-5-[[3-fluoro-2-(propylsulfamoylamino)pyridin-4-yl]methyl]-N-(2-hydroxyethoxy)benzamide] | – | 1 | – | 5 | – | 2 | 6 | – | – | – | –
CCCS(=O)(=O)Nc1nccc(Cc2cc(C(N)=O)c(Nc3ccc(I)cc3F)c(F)c2F)c1F [Compound B-8] | – | 14 | 24 | 95 | – | 47 | 7 | – | – | – | –
NC(=O)c1cc(Cc2ccnc(NS(=O)(=O)NCCO)c2F)c(F)c(F)c1Nc1ccc(I)cc1F [Compound B-9, 3,4-Difluoro-5-[[3-fluoro-2-(2-hydroxyethylsulfamoylamino)pyridin-4-yl]methyl]-2-(2-fluoro-4-iodoanilino)benzamide] | – | 7 | 11 | 10 | – | 2 | 4 | – | – | – | –
COCCNS(=O)(=O)Nc1cc(Cc2cc(C(N)=O)c(Nc3ccc(I)cc3F)c(F)c2F)ccn1 [Compound C-2, 3,4-Difluoro-2-(2-fluoro-4-iodoanilino)-5-[[2-(2-methoxyethylsulfamoylamino)pyridin-4-yl]methyl]benzamide] | – | 7 | 17 | 16 | – | 104 | 2 | – | – | – | –
CNS(=O)(=O)Nc1cc(Cc2cc(C(N)=O)c(Nc3ccc(I)cc3F)c(F)c2F)ccn1 [Compound C-3, 3,4-difluoro-2-(2-fluoro-4-iodoanilino)-5-[[2-(methylsulfamoylamino)pyridin-4-yl]methyl]benzamide] | – | 0.4 | 9 | 1 | – | 12 | 3 | – | – | – | –
CCCNS(=O)(=O)Nc1nccc(Cn2cc(C(N)=O)c(Nc3ccc(I)cc3F)c(F)c2=O)c1F [Compound N-2, 5-Fluoro-4-(2-fluoro-4-iodoanilino)-1-[[3-fluoro-2-(propylsulfamoylamino)pyridin-4-yl]methyl]-6-oxopyridine-3-carboxamide] | – | 60 | 11 | – | – | 1 | 1 | – | – | – | –
Cc1c(Nc2ccc(I)cc2F)c(C(N)=O)cn(Cc2ccnc(NS(=O)(=O)NC3(C)CCC3)c2F)c1=O [Compound P-3, 4-(2-Fluoro-4-iodoanilino)-1-[[3-fluoro-2-[(1-methylcyclobutyl)sulfamoylamino]pyridin-4-yl]methyl]-5-methyl-6-oxopyridine-3-carboxamide] | – | 96 | 37 | – | – | 3 | 10 | – | – | – | –
CCS(=O)(=O)Nc1nccc(Cn2cc(C(=O)NOC)c(Nc3ccc(I)cc3F)c(C)c2=O)c1F [Compound P-5] | – | 31 | 2 | – | – | 11 | 11 | – | – | – | –
